Results taken from US12258609B2, “Method for producing glycerides of hydroxycarboxylic acids” (KetoLipix Therapeutics GmbH, priority 2019, dated 2025).
Like-named read-outs stand apart in the source and are kept apart here.

What was measured:
[1] = tested on: porcine pancreatic lipase type II (PPL type II)
Experimental: (§1) Further Cleavage with Bowl Medium: FaSSIF Medium • The FaSSIF medium is prepared according to the previous test according to the manufacturer's instructions. • The resulting sample is divided into two batches of equal size. 10 wt.-% of the ternary glyceride mixture of mono-, di- and triglycerides of 3-hydroxybutyric acids according to the invention is dissolved in each FaSSIF medium and left in a water bath at 35° C. for 24 hours.

[2] = tested on: Panzytrat® 40,000 (pancreatin)
Experimental: (§2) For the cleavage experiments under near-body conditions two media are investigated: • FaSSGF, which simulates the stomach • FaSSIF, which simulates the intestinal tract
(§3) Both media are from the company Biorelevant®, Ltd. in Great Britain. In addition, in some experiments porcine pancreas is added (Panzytrat® 40,000, Fa. Allergan).
(§4) Cleavage with Bowl Medium: FaSSIF Medium • The FaSSIF medium is prepared according to the manufacturer's instructions (Fa. Biorelevant, Ltd., Great Britain). • The sample obtained is divided into two equally sized preparations. 10 wt.-% of the aforementioned glyceride mixture based on a mixture of mono-, di- and triglycerides of 3-hydroxybutyric acids is dissolved in each FaSSIF medium and left in a water bath at 35° C. for 24 hours.

[3] = tested on: Panzytrat® 40,000 (pancreatin); remark: listed apart in the source
Experimental: as §2
(§5) In addition, in some experiments porcine pancreas is added (Panzytrat® 40,000, Fa. Allergan).
(§6) Cleavage with Gastric Medium: FaSSGF Medium • A so-called FaSSGF medium is prepared according to the manufacturer's specifications from the commercially available corresponding composition (available from Biorelevant, Ltd., Great Britain). • The resulting sample is divided into two batches of equal size. 10 wt.-% of the ternary glyceride mixture based on mono-, di- and triglycerides of 3-hydroxybutyric acid, as described hereinabove, is dissolved in each FaSSGF medium and left in a water bath at 35° C. for 24 hours.

[4] = tested on: Panzytrat® 40,000 (pancreatin); assay: Cleavage experiments with and without Panzytrat 40,000 in FaSSGF medium (simulates the stomach, pH 1.6); conditions: for change of content in FaSSGF medium: pH 1.6, 35° C., 24 hours, both with and without pancreatin; for share in chromatogram, FaSSGF m.P. 24 h, 35° C. / share in chromatogram, FaSSGF o.P. 24 h, 35° C. / share in chromatogram, before splitting: the 11th table; for share in chromatogram, FaSSGF m.P. 24 h, 35° C. / share in chromatogram, FaSSGF o.P. 24 h, 35° C.: FaSSGF (stomach, pH = 1.6); for share in chromatogram, FaSSGF m.P. 24 h, 35° C.: with Panzytrat; for share in chromatogram, FaSSGF o.P. 24 h, 35° C.: without Panzytrat; for share in chromatogram, before splitting: starting mixture (crude high-boiling fraction) before splitting; for before splitting: the 12th table, FaSSGF medium
Experimental: as §2, §5, §6

[5] = tested on: porcine pancreatic lipase type II (PPL type II); assay: Cleavage experiments with and without porcine pancreatic lipase in FaSSIF medium; conditions: for with enzyme, 24 h, 35° C. / without enzyme 24 h, 35° C. / before splitting 0 h: the 14th table; for with enzyme, 24 h, 35° C.: FaSSIF medium pH 6.5, 1 wt.-% porcine pancreatic lipase type II; for without enzyme 24 h, 35° C.: FaSSIF medium pH 6.5, without enzyme; for before splitting 0 h: FaSSIF medium
Experimental: as §1

[6] = tested on: pancreatin (Panzytrat® 40,000); assay: Cleavage experiments with pancreatin in water, acid number over time; format: in vitro ADME, porcine; conditions: test repeated on individual glycerides, 50° C.
[7] = tested on: Panzytrat® 40,000 (pancreatin); assay: Cleavage experiments with and without Panzytrat 40,000 in FaSSIF medium (simulates the intestinal tract, pH 6.5); conditions: for share in chromatogram, FaSSIF 0 h, Start / share in chromatogram, FaSSIF m.P. 24 h, 35° C. / share in chromatogram, FaSSIF o.P. 24 h, 35° C.: the 11th table, FaSSIF (bowel, pH = 6.5); for share in chromatogram, FaSSIF m.P. 24 h, 35° C.: with Panzytrat; for share in chromatogram, FaSSIF o.P. 24 h, 35° C.: without Panzytrat; for with Panzytrat 24 h, 35° C. / without Panzytrat 24 h, 35° C. / before splitting 0 h: the 13th table, in %; for with Panzytrat 24 h, 35° C.: FaSSIF medium pH 6.5, 1 wt.-% Panzytrat 40,000, 24 h; for without Panzytrat 24 h, 35° C.: FaSSIF medium pH 6.5, without Panzytrat; for before splitting 0 h: FaSSIF medium
Experimental: as §2, §3, §4

Compound	share in chromatogram, FaSSGF m.P. 24 h, 35° C. [4]	share in chromatogram, FaSSGF o.P. 24 h, 35° C. [4]	share in chromatogram, before splitting [4]	before splitting [4]	with enzyme, 24 h, 35° C. [5]	without enzyme 24 h, 35° C. [5]	before splitting 0 h [5]	cleavage of the individual glycerides by pancreatin [6]	share in chromatogram, FaSSIF 0 h, Start [7]	share in chromatogram, FaSSIF m.P. 24 h, 35° C. [7]	share in chromatogram, FaSSIF o.P. 24 h, 35° C. [7]	with Panzytrat 24 h, 35° C. [7]	without Panzytrat 24 h, 35° C. [7]	before splitting 0 h [7]	further results
CC(O)CC(=O)OC(C)CC(=O)O (centres unmarked) [3-BHB dimer, dimer of 3-hydroxybutyrate]															before splitting 0 h [1]: 0.7%; with enzyme, 24 h, 35° C. ([1]; pH 6.5): 0.71%; without enzyme 24 h, 35° C. ([1]; pH 6.5): 0.72%; before splitting 0 h [2]: 0.70; share in chromatogram, FaSSIF 0 h, Start [2]: 0.70 % area; share in chromatogram, FaSSIF m.P. 24 h, 35° C. [2]: 0.72 % area; share in chromatogram, FaSSIF o.P. 24 h, 35° C. [2]: 0.72 % area; with Panzytrat 24 h, 35° C. ([2]; pH 6.5): 0.72; without Panzytrat 24 h, 35° C. ([2]; pH 6.5): 0.72; before splitting [3]: 0.71 % area; share in chromatogram, FaSSGF m.P. 24 h, 35° C. [3]: 0.45 % area; share in chromatogram, FaSSGF o.P. 24 h, 35° C. [3]: 0.35 % area; share in chromatogram, before splitting [3]: 0.71 % area
CC(O)CC(=O)OCC(CO)OC(=O)CC(C)O (centres unmarked) [3-BHB-DG, diglyceride of 3-hydroxybutyric acid]	44.09 % area	37.01 % area	55.85 % area	55.85 % area	59.84	60.93	60.17	cleaved by pancreatin to the free 3-hydroxybutyric acid	60.17 % area	61.38 % area	60.93 % area	61.38	60.93	60.17	change of content in FaSSGF medium [4]: significant decrease
CC(O)CC(=O)OCC(O)CO (centres unmarked) [3-BHB-MG, monoglyceride of 3-hydroxybutyric acid]	18.41 % area	21.09 % area	18.28 % area	18.28 % area	15.98	12.26	13.52	cleaved by pancreatin to the free 3-hydroxybutyric acid	13.52 % area	14.34 % area	12.26 % area	14.34	12.26	13.52	
CC(O)CC(=O)OCC(COC(=O)CC(C)O)OC(=O)CC(C)O (centres unmarked) [3-BHB-TG, triglyceride of 3-hydroxybutyric acid]	10.12 % area	7.55 % area	16.08 % area	16.08 % area	13.38	16.79	16.40	cleaved by pancreatin to the free 3-hydroxybutyric acid	16.40 % area	12.83 % area	16.79 % area	12.83	16.79	16.40	change of content in FaSSGF medium [4]: significant decrease; change of content in FaSSIF medium with porcine pancreatic lipase ([5]; FaSSIF, pH 6.5, 35° C., 24 hours, 1 wt.-% PPL type II): slight decrease; change of content in FaSSIF medium ([7]; FaSSIF, pH 6.5, 35° C., 24 hours, with and without pancreatin): slight decrease
CC(O)CC(=O)OC(C)CC(=O)OCC(CO)OC(=O)CC(C)O (centres unmarked) [3-BHB-dimer-DG, diglyceride of the dimer of 3-hydroxybutyric acid]	4.22 % area	3.14 % area	6.62 % area	6.62 % area	7.07	7.61	7.56		7.56 % area	7.02 % area	7.61 % area	7.02	7.61	7.56	
CC(O)CC(=O)OC(C)CC(=O)O (centres unmarked) [3-BHB-dimer-FS, dimer of 3-hydroxybutyric acid]	2.51 % area	3.25 % area			0.17	0.00	0.00			0.17 % area		0.17	0.00	0.00	
CC(O)CC(=O)OC(C)CC(=O)OCC(O)CO (centres unmarked) [3-BHB-dimer-MG, monoglyceride of the dimer of 3-hydroxybutyric acid]	0.22 % area	0.16 % area	0.39 % area	0.39 % area	0.16	0.44	0.42		0.42 % area		0.44 % area	0.00	0.44	0.42	
CCOC(=O)CC(C)O (centres unmarked) [3-BHB-ethyl, 3-hydroxybutyric acid ethyl ester]									0.16 % area	0.20 % area	0.18 % area	0.20	0.18	0.16	before splitting 0 h ([1]; 0 h, 10 wt.-%, pH 6.5): 0.16%; without enzyme 24 h, 35° C. ([1]; 24 h, 10 wt.-%, pH 6.5): 0.18%; with enzyme, 24 h, 35° C. ([1]; pig, 24 h, 10 wt.-%, pH 6.5): 0.12%; before splitting ([3]; 0 h): 0.31 % area; share in chromatogram, before splitting ([3]; 0 h, 10 wt.-%, pH 1.6): 0.31 % area; share in chromatogram, FaSSGF o.P. 24 h, 35° C. ([3]; 24 h, 10 wt.-%, pH 1.6): 0.07 % area; share in chromatogram, FaSSGF m.P. 24 h, 35° C. ([3]; pig, 24 h, 10 wt.-%, pH 1.6): 0.11 % area
OCC(O)CO [glycerol]									0.07 % area	0.07 % area	0.05 % area	0.07	0.05	0.07	before splitting 0 h ([1]; 0 h, 10 wt.-%, pH 6.5): 0.07%; without enzyme 24 h, 35° C. ([1]; 24 h, 10 wt.-%, pH 6.5): 0.05%; with enzyme, 24 h, 35° C. ([1]; pig, 24 h, 10 wt.-%, pH 6.5): 0.08%; before splitting ([3]; 0 h): 0.38 % area; share in chromatogram, before splitting ([3]; 0 h, 10 wt.-%, pH 1.6): 0.38 % area; share in chromatogram, FaSSGF o.P. 24 h, 35° C. ([3]; 24 h, 10 wt.-%, pH 1.6): 0.81 % area; share in chromatogram, FaSSGF m.P. 24 h, 35° C. ([3]; pig, 24 h, 10 wt.-%, pH 1.6): 0.51 % area
